According to PMC10410440, “Preclinical PK investigation of a novel IDO1/TDO dual inhibitor—SHR9146 in mouse plasma and tissues by LC-MS/MS” (Frontiers in Oncology, 2023):
Entries after “also recorded” stand apart in the source; their conditions may differ. Where two headings read alike, the source gives them in different places.

Assay: Tissue distribution of SHR9146 in mice after oral gavage of 40 mg/kg
Assay type: in vivo, ICR mice
Details: for concentration at 6 h / concentration at 24 h / concentration at 1 h / concentration at 3 h: male, ICR, mouse, po, 40 mg/kg oral gavage
Procedure: ICR mice with body weight 16–26 g were supplied by Shanghai Lingchang Biotechnology Co., Ltd. (animal breeding license number SCXK (Shanghai) 2013-0018) and housed at Shanghai Institute of Materia Medica, Chinese Academy of Sciences [animal use license number SYXK (Shanghai) 2015-0027]. The mice used in this study were fasted overnight for 12 h but had free access to water. Food was supplied 4 h post-dose. All experiments in this study were conducted in accordance with the Guidelines for the Care and Use of Laboratory Animals of Shanghai Institute of Materia Medica, Chinese Academy of Sciences.
Another set of 30 mice were randomly assigned into five groups with equal numbers, males and females, for tissue distribution study with oral gavage at a single dose of 40 mg/kg at predetermined different time points: pre-dose and post dose at 1, 3, 6, and 24 h, respectively. The whole brain, heart, liver, spleen, lung, kidney, bladder, pancreas, testis, ovary, uterus, stomach, small intestine, adrenal gland, skin, skeletal muscle, thyroid gland, and abdominal fat tissues as well as the whole blood and plasma samples were harvested. Tissue samples were washed with 0.9% sodium chloride solution to remove the residual blood or contents, blotted on a filter paper, and stored at −70°C prior to the analysis.
Protein precipitation was selected for the pretreatment of both the plasma and the tissue homogenate prepared after thawing at room temperature, cut into pieces, and homogenized with a quintuple methanol–water mixture (1:1, v/v) for each tissue sample.
Briefly as follows, an aliquot of 25-μL plasma or tissue homogenate was spiked with 100 μL of internal standard solution (1 μg/mL for plasma, 0.2 μg/mL for tissue homogenate) and 300 μL of methanol added and vortex mixed for 60 s. The mixture was then centrifuged at 14,000 rpm at 4°C for 5.0 min, and the supernatant was diluted with methanol–water (4:1, v/v) in a ratio of 1:9 for the plasma or 1:1 for the tissue homogenate, and 5 μL of the resulting solution was injected for the LC-MS/MS analysis.
After oral administration of 40 mg/kg SHR9146, samples in different tissues at predetermined time points (pre-drug administration, post-drug administration at 1, 3, 6, and 24 h) were collected and prepared for the analysis. The drug concentrations of SHR9146 (μg/g or μg/mL) were determined for each mouse, and the mean and standard deviation were further obtained (Table S7).

[1] = kidney, 40 mg/kg, Mean (n=3), read-out: SHR9146 concentration in Kidney
[2] = liver, 40 mg/kg, Mean (n=3), read-out: SHR9146 concentration in Liver
[3] = liver, 40 mg/kg, individual mice, read-out: SHR9146 concentration in Liver
[4] = lung, 40 mg/kg, Mean (n=3), read-out: SHR9146 concentration in Lung
[5] = lung, 40 mg/kg, individual mice, read-out: SHR9146 concentration in Lung
[6] = pancreas, 40 mg/kg, Mean (n=3), read-out: SHR9146 concentration in Pancreas
[7] = pancreas, 40 mg/kg, individual mice, read-out: SHR9146 concentration in Pancreas
[8] = plasma, 40 mg/kg, Mean (n=3), read-out: SHR9146 concentration in Plasma
[9] = plasma, 40 mg/kg, individual mice, read-out: SHR9146 concentration in Plasma
[10] = skeletal muscle, 40 mg/kg, Mean (n=3), read-out: SHR9146 concentration in Skeletal muscle
[11] = skeletal muscle, 40 mg/kg, individual mice, read-out: SHR9146 concentration in Skeletal muscle
[12] = skin, 40 mg/kg, Mean (n=3), read-out: SHR9146 concentration in Skin
[13] = small intestine, 40 mg/kg, Mean (n=3), read-out: SHR9146 concentration in Small intestine
[14] = small intestine, 40 mg/kg, individual mice, read-out: SHR9146 concentration in Small intestine
[15] = spleen, 40 mg/kg, Mean (n=3), read-out: SHR9146 concentration in Spleen
[16] = spleen, 40 mg/kg, individual mice, read-out: SHR9146 concentration in Spleen
[17] = stomach, 40 mg/kg, Mean (n=3), read-out: SHR9146 concentration in Stomach
[18] = testis, 40 mg/kg, Mean (n=3), read-out: SHR9146 concentration in Testis
[19] = thyroid gland, 40 mg/kg, Mean (n=3), read-out: SHR9146 concentration in thyroid gland
[20] = thyroid gland, 40 mg/kg, individual mice, read-out: SHR9146 concentration in thyroid gland
[21] = whole blood, 40 mg/kg, Mean (n=3), read-out: SHR9146 concentration in Whole blood
[22] = whole blood, 40 mg/kg, individual mice, read-out: SHR9146 concentration in Whole blood

concentration at 6 h [1]: 210 ng/g | concentration at 24 h [1]: 18 ng/g | concentration at 24 h (kidney, 40 mg/kg, individual mice, read-out: SHR9146 concentration in Kidney): 55 ng/g | concentration at 1 h [2]: 20000 ng/g | concentration at 1 h [3]: 22000 ng/g | concentration at 3 h [2]: 9670 ng/g | concentration at 6 h [2]: 633 ng/g | concentration at 24 h [2]: 110 ng/g | concentration at 24 h [3]: 330 ng/g | concentration at 1 h [4]: 12500 ng/g | concentration at 1 h [5]: 13100 ng/g | concentration at 3 h [4]: 5160 ng/g | concentration at 6 h [4]: 645 ng/g | concentration at 6 h [5]: 725 ng/g | concentration at 24 h [4]: 11700 ng/g | concentration at 1 h [6]: 12600 ng/g | concentration at 1 h [7]: 13800 ng/g | concentration at 3 h [6]: 4870 ng/g | concentration at 6 h [6]: 67 ng/g | concentration at 6 h [7]: 74 ng/g | concentration at 1 h [8]: 9120 ng/mL | concentration at 1 h [9]: 10100 ng/mL | concentration at 3 h [8]: 3710 ng/mL | concentration at 6 h [8]: 49 ng/mL | concentration at 6 h [9]: 53 ng/mL | concentration at 1 h [10]: 5600 ng/g | concentration at 1 h [11]: 6100 ng/g | concentration at 3 h [10]: 2220 ng/g | concentration at 6 h [10]: 23 ng/g | concentration at 6 h [11]: 70 ng/g | concentration at 1 h [12]: 7210 ng/g | concentration at 3 h [12]: 3110 ng/g | concentration at 6 h [12]: 113 ng/g | concentration at 24 h [12]: 21 ng/g | concentration at 24 h (skin, 40 mg/kg, individual mice, read-out: SHR9146 concentration in Skin): 64 ng/g | concentration at 1 h [13]: 22700 ng/g | concentration at 1 h [14]: 19200 ng/g | concentration at 3 h [13]: 6910 ng/g | concentration at 6 h [13]: 90 ng/g | concentration at 6 h [14]: 117 ng/g | concentration at 1 h [15]: 4840 ng/g | concentration at 1 h [16]: 5540 ng/g | concentration at 3 h [15]: 1700 ng/g | concentration at 6 h [15]: 17 ng/g | concentration at 6 h [16]: 51 ng/g | concentration at 1 h [17]: 38000 ng/g | concentration at 1 h (stomach, 40 mg/kg, individual mice, read-out: SHR9146 concentration in Stomach): 39900 ng/g | concentration at 3 h [17]: 10200 ng/g | concentration at 6 h [17]: 1140 ng/g | concentration at 24 h [17]: 499 ng/g | concentration at 1 h [18]: 4000 ng/g | concentration at 1 h (testis, 40 mg/kg, individual mice, read-out: SHR9146 concentration in Testis): 4160 ng/g | concentration at 3 h [18]: 1660 ng/g | concentration at 6 h [18]: 100 ng/g | concentration at 1 h [19]: 7010 ng/g | concentration at 1 h [20]: 7250 ng/g | concentration at 3 h [19]: 2730 ng/g | concentration at 6 h [19]: 63 ng/g | concentration at 6 h [20]: 71 ng/g | concentration at 1 h [21]: 6060 ng/mL | concentration at 1 h [22]: 6820 ng/mL | concentration at 3 h [21]: 2440 ng/mL | concentration at 6 h [21]: 22 ng/mL | concentration at 6 h [22]: 67 ng/mL | tissue concentration at 24 h as share of the highest concentration (oral 40 mg/kg, mice, last time point 24 h): around 3.1%
SMILES: OCCn1cc(-c2ccc(N3CCC([C@H]4c5c(F)cccc5-c5cncn54)CC3)cc2)cn1 [SHR9146]
distribution into brain (oral 40 mg/kg, mice, 40 mg/kg): lowest; also recorded: rarely distributed in the brain | tissue distribution (oral 40 mg/kg, mice, 40 mg/kg): widely distributed in various tissues and mainly distributed in the stomach, adrenal gland, liver, and lung
